Assay results: patent US20110189204A1, “Treatment of Disease with Proteasone Inhibitors” (priority 2009, published 2011)

What was measured:
[1] = Toxicological screening, bi-weekly/weekly subcutaneous dosing (TOX7345)
Experimental: (§1) For each study group, the following toxicological screening was performed: mortality, body weight, food consumption, clinical observations, ophthalmology, electrocardiography, hematology, serum biochemistry, urinalysis, injection site evaluations (erythema and edema), neurological examinations, histology, and peripheral neuropathy.

[2] = test system: 20S proteasome (chymotryptic activity) in whole blood; test: 20S proteasome inhibition in whole blood, daily (5/7 days) dosing (TOX8394); format: in vivo, Cynomolgus monkeys
Experimental: (§2) For each study, the 20S proteasome activity in whole blood was determined, as described in Lightcap, Clin. Chem., 46:673 (2000). The chymotryptic activity was assayed by measuring the rate at which the proteasome hydrolyzed an amide bond in a small fluorescence tagged polypeptide substrate. The specific activity (Spa) was normalized to the amount of protein present in the lysate.

[3] = test system: 20S proteasome (chymotryptic activity) in whole blood; test: 20S proteasome inhibition in whole blood, bi-weekly/weekly dosing (TOX7345); format: in vivo, Cynomolgus monkeys
Experimental: as §2

in vivo [4] = conditions: both, cynomolgus monkey, plasma
Experimental: (§3) For bi-weekly dosing treatment (TOX 7345), a group of 3 male and 3 female Cynomolgus monkeys were dosed for 4 cycles.
(§4) The test substance and vehicle were freshly prepared on the day of use.
(§5) For each study, the values of the time to maximum plasma concentration (Tmax), the maximum plasma concentration (Cmax) were determined by visual inspection of the data. The area-under-the plasma-concentration-time curve (AUC) was estimated by the linear trapezoidal rule. Plasma samples were analyzed using a validated LC/MS/MS method with a lower quantification limit of about 0.5 ng/ml.

in vivo [5] = test: in vivo
Experimental: as §1

[6] = Plasma pharmacokinetics, bi-weekly/weekly subcutaneous dosing (TOX7345)
Experimental: as §3, §4, §5

in vivo [7] = conditions: both, cynomolgus monkey, plasma; remark: listed apart in the source
[8] = Plasma pharmacokinetics, daily (5/7 days) subcutaneous dosing (TOX8394)
[9] = both, cynomolgus monkey, in vivo
[10] = cynomolgus monkey, in vivo, 0.1 mg/kg
[11] = day 3, 0.0166 mg/kg sc daily (5/7 days)
[12] = day 3, 0.0333 mg/kg sc daily (5/7 days)
[13] = day 3, 0.05 mg/kg sc daily (5/7 days)
[14] = day 54, 0.0166 mg/kg sc daily (5/7 days)
[15] = day 54, 0.0333 mg/kg sc daily (5/7 days)
[16] = day 54, 0.05 mg/kg sc daily (5/7 days)
[17] = day 1, 0.075 mg/kg sc bi-weekly
[18] = day 32, 0.075 mg/kg sc bi-weekly
[19] = day 74, 0.075 mg/kg sc bi-weekly

For CC(C)C[C@H](NC(=O)[C@H](Cc1ccccc1)NC(=O)c1cnccn1)B(O)O [bortezomib], the Mortality ([1]; 0.166 mg/kg weekly, considered treatment related) was 1 F (day 72), 1 M (day 79), at, the MTD at 4 cycles [1, 9] was ~0.1 mg/kg and the “Peripheral neuropathy: focal axonal neurofiber degeneration, spinal cord (dorsal root ganglia)” value [1, 9] was 0.1/0.166 (weekly) mg/kg minimal. For the same molecule, the Body weight ([1]; cynomolgus monkey, in vivo) was “No body weight loss at other dose”, the Electrocardiography ([1]; cynomolgus monkey, in vivo) was “No abnormalities found at any” and the Haemathology ([1]; cynomolgus monkey, in vivo) was “No hematological changes related”. For the same molecule, the “Histology: PANCREAS” value ([1]; cynomolgus monkey, in vivo) was “PANCREAS: no findings”, the “Histology: PROSTATE” value ([1]; cynomolgus monkey, in vivo) was “PROSTATE: no findings” and the Ophthalmology ([1]; cynomolgus monkey, in vivo) was “No treatment related changes”. The Urinalysis ([1]; cynomolgus monkey, in vivo) was “No treatment related findings”, the “Histology: LYMPH NODES” value [1, 10] was “LYMPH NODES: lymphoid atrophy” and the “Histology: SPLEEN” value [1, 10] was “SPLEEN: pulp, lymphoid atrophy”. The Mortality ([1]; other dose levels (0.075, 0.1 mg/kg bi-weekly)) was “No mortality at other dose levels”, the “cumulative AUE (over 1 week), daily schedule higher than bi-weekly” value ([2]; 0.05 mg/kg daily vs 0.1 mg/kg bi-weekly) was “about 50%” and the AUE0-24 h ([2]; about 0.6 mg/m^2 once daily) was 900 %. h. The “remaining 20S proteasome inhibition at the end of each 2-day drug-holiday” value ([2]; activity determined on various days before dosing) was “no indication for remaining 20S proteasome inhibition”, the “highest inhibition (Emax)” value ([2]; daily schedule, 0.05 mg/kg) was 73% and the “cumulative weekly AUE” value ([2]; daily schedule, about 0.6 mg/m^2) was 4500 %. h. The AUE0-24 h [2, 11] was 603 (77) % Inhibition · time, the “Emax (% proteasome inhibition)” value [2, 11] was 48% and the “Tmax (time of occurrence of Emax)” value [2, 11] was 30 min. For the same molecule, the AUE0-24 h [2, 12] was 685 (32) % Inhibition · time, the “Emax (% proteasome inhibition)” value [2, 12] was 58% and the “Tmax (time of occurrence of Emax)” value [2, 12] was 30 min. For the same molecule, the AUE0-24 h [2, 13] was 802 (67) % Inhibition · time, the “Emax (% proteasome inhibition)” value [2, 13] was 65% and the “Tmax (time of occurrence of Emax)” value [2, 13] was 30 min. The AUE0-24 h [2, 14] was 481 (103) % Inhibition · time, the “Emax (% proteasome inhibition)” value [2, 14] was 38% and the “Tmax (time of occurrence of Emax)” value [2, 14] was 30 min. The AUE0-24 h [2, 15] was 895 (125) % Inhibition · time, the “Emax (% proteasome inhibition)” value [2, 15] was 62% and the “Tmax (time of occurrence of Emax)” value [2, 15] was 30 min. For the same molecule, the AUE0-24 h [2, 16] was 1039 (114) % Inhibition · time, the “Emax (% proteasome inhibition)” value [2, 16] was 73% and the “Tmax (time of occurrence of Emax)” value [2, 16] was 30 min. The “time of maximal proteasome inhibition after dosing” value ([2]; on average, sc administration) was “about 0.5 h”, the AUE0-72h ([3]; about 1.2 mg/m^2 bi-weekly) was 1500 %. h and the “strongest inhibition (Emax)” value ([3]; bi-weekly regimen, 0.1 mg/kg) was 74%. For the same molecule, the “cumulative weekly AUE” value ([3]; bi-weekly schedule, about 1.2 mg/m^2) was 3000 %. h, the AUE0-24 h [3, 17] was 585 (87) % Inhibition · time and the “Emax (% proteasome inhibition)” value [3, 17] was 63%. For the same molecule, the “Tmax (time of occurrence of Emax)” value [3, 17] was 30 min, the AUE0-24 h ([3]; day 1, 0.1 mg/kg sc bi-weekly) was 926 (99) % Inhibition · time and the “Emax (% proteasome inhibition)” value ([3]; day 1, 0.1 mg/kg sc bi-weekly) was 74%. The “Tmax (time of occurrence of Emax)” value ([3]; day 1, 0.1 mg/kg sc bi-weekly) was 30 min, the AUE0-24 h ([3]; day 1, 0.166 mg/kg sc weekly) was 931 (124) % Inhibition · time and the “Emax (% proteasome inhibition)” value ([3]; day 1, 0.166 mg/kg sc weekly) was 78%. The “Tmax (time of occurrence of Emax)” value ([3]; day 1, 0.166 mg/kg sc weekly) was 60 min, the AUE0-24 h [3, 18] was 1086 (158) % Inhibition · time and the “Emax (% proteasome inhibition)” value [3, 18] was 68%. For the same molecule, the “Tmax (time of occurrence of Emax)” value [3, 18] was 30 min, the AUE0-24 h ([3]; day 32, 0.1 mg/kg sc bi-weekly) was 1454 (201) % Inhibition · time and the “Emax (% proteasome inhibition)” value ([3]; day 32, 0.1 mg/kg sc bi-weekly) was 71%. For the same molecule, the “Tmax (time of occurrence of Emax)” value ([3]; day 32, 0.1 mg/kg sc bi-weekly) was 30 min, the AUE0-24 h ([3]; day 50, 0.166 mg/kg sc weekly) was 2152 (222) % Inhibition · time and the “Emax (% proteasome inhibition)” value ([3]; day 50, 0.166 mg/kg sc weekly) was 78%. The “Tmax (time of occurrence of Emax)” value ([3]; day 50, 0.166 mg/kg sc weekly) was 30 min, the AUE0-24 h [3, 19] was 1111 (116) % Inhibition · time and the “Emax (% proteasome inhibition)” value [3, 19] was 67%. For the same molecule, the “Tmax (time of occurrence of Emax)” value [3, 19] was 30 min, the AUE0-24 h ([3]; day 74, 0.1 mg/kg sc bi-weekly) was 1584 (210) % Inhibition · time and the “Emax (% proteasome inhibition)” value ([3]; day 74, 0.1 mg/kg sc bi-weekly) was 72%. For the same molecule, the “Tmax (time of occurrence of Emax)” value ([3]; day 74, 0.1 mg/kg sc bi-weekly) was 30 min, the AUE0-24 h ([3]; day 78, 0.166 mg/kg sc weekly) was 1468 (219) % Inhibition · time and the “Emax (% proteasome inhibition)” value ([3]; day 78, 0.166 mg/kg sc weekly) was 77%. The “Tmax (time of occurrence of Emax)” value ([3]; day 78, 0.166 mg/kg sc weekly) was 60 min, the “time of maximal proteasome inhibition after dosing” value ([3]; on average, sc administration) was “about 0.5 h” and the maximal inhibition ([3]; weekly 0.166 mg/kg dose group) was 78%. The AUC(0-t) (in vivo [4]; Cynomolgus, sc, 0.166 mg/kg) was 229 ng·h/mL, the Cmax (in vivo [4]; Cynomolgus, sc, 0.166 mg/kg) was 158 ng/mL and the Tmax (in vivo [4]; Cynomolgus, sc, 0.166 mg/kg) was 13.8 min. For the same molecule, the Tmax (in vivo [4]; Cynomolgus, subcutaneous) was ≤ 15 min, the Cmax (in vivo [4]; sc, 0.075 mg/kg) was 61.1 ng/mL and the Cmax (in vivo [4]; sc, 0.1 mg/kg) was 86.2 ng/mL. It also gave a Tmax (in vivo [4]; sc, 0.1 mg/kg) of 7.02 min, an AUC(0-t) (in vivo [4]; sc, 0.166 mg/kg) of 160 ng·h/mL and a Cmax (in vivo [4]; sc, 0.166 mg/kg) of 144 ng/mL. For the same molecule, the Tmax (in vivo [4]; sc, 0.166 mg/kg) was 7.02 min, the Kidney weights (in vivo [5]; 0.05 mg/kg/dose, all monkeys) was “greater than kidney weights of control monkeys” and the “Injection site histopathological finding” value (in vivo [5]; 0.05 mg/kg/dose, male and female) was “fibroplasia”. For the same molecule, the “Peripheral neuropathy: peripheral (sciatic, tibial and peroneal nerves) degeneration” value (in vivo [5]; 0.0333-0.05 mg/kg) was “peroneal nerves): minimal”, the “Peripheral neuropathy: spinal cord dorsal funiculi (cervical & lumbar)” value (in vivo [5]; 0.0333-0.05 mg/kg) was “& lumbar) minimal degeneration” and the “Clinical observations: faeces” value (in vivo [5]; 0.0333 or 0.05 mg/kg) was “Abnormal faeces (soft, liquid, 0.0333”. For the same molecule, the MTD at 8 weeks (in vivo [5]; [9]) was ~0.05 mg/kg, the Body weight (in vivo [5]; cynomolgus monkey, in vivo) was “No body weight loss at any other” and the “ECG, ophthalmology, rectal temperature or blood pressure” value (in vivo [5]; cynomolgus monkey, in vivo) was “No bortezomib-related changes”. The Electrocardiography (in vivo [5]; cynomolgus monkey, in vivo) was “No abnormalities found at any dose”, the Fibrinogen concentrations (in vivo [5]; cynomolgus monkey, in vivo) was “fibrinogen concentrations increased” and the “Gross abnormalities at necropsy” value (in vivo [5]; cynomolgus monkey, in vivo) was “no gross abnormalities”. For the same molecule, the “Haemathology: mean platelet volume” value (in vivo [5]; cynomolgus monkey, in vivo) was “mean platelet volume increased”, the “Haemathology: platelet numbers” value (in vivo [5]; cynomolgus monkey, in vivo) was “Platelet numbers decreased” and the “Histology: BONE MARROW” value (in vivo [5]; cynomolgus monkey, in vivo) was “BONE MARROW: no findings”. The “Histology: LYMPH NODES” value (in vivo [5]; cynomolgus monkey, in vivo) was “LYMPH NODES: no findings”, the “Histology: SPLEEN” value (in vivo [5]; cynomolgus monkey, in vivo) was “SPLEEN: no findings” and the Ophthalmology (in vivo [5]; cynomolgus monkey, in vivo) was “No treatment related changes”. For the same molecule, the Urinalysis (in vivo [5]; cynomolgus monkey, in vivo) was “No treatment related findings”, the “Urinalysis parameters creatinine, inorganic phosphorus, ketones, protein and sodium” value (in vivo [5]; cynomolgus monkey, in vivo) was “Increases” and the Tolerability (in vivo [5]; cynomolgus monkey, in vivo, sc) was “well tolerated”. The Stool (in vivo [5]; multiple days, one male each at 0.0166 and 0.0333, one female at 0.05 mg/kg/dose) was “Soft stool”, the Body weight lost (in vivo [5]; nine male and female monkeys in the 0.0333 and 0.05 mg/kg/dose groups) was 3-12% and the “No Observed Adverse Effect Level (NOAEL)” value (in vivo [5]; repeated five times weekly sc administration for 8 weeks) was “cannot be identified”. For the same molecule, the AUC0-72 h [6, 17] was 36.7 ng·h/mL, the AUC0-72 h ([6]; day 1, 0.1 mg/kg sc bi-weekly) was 77.5 ng·h/mL and the AUC0-72 h [6, 18] was 110 ng·h/mL. The Cmax [6, 18] was 58.8 ng/mL, the Tmax [6, 18] was 15 min and the AUC0-72 h ([6]; day 32, 0.1 mg/kg sc bi-weekly) was 227 ng·h/mL. The Tmax ([6]; day 32, 0.1 mg/kg sc bi-weekly) was 7.14 min, the AUC0-72 h ([6]; day 50, 0.166 mg/kg sc weekly) was 205 ng·h/mL and the Cmax ([6]; day 50, 0.166 mg/kg sc weekly) was 168 ng/mL. It also gave an AUC0-72 h [6, 19] of 122 ng·h/mL, a Cmax [6, 19] of 70.1 ng/mL and a Tmax [6, 19] of 8.34 min. It also gave an AUC0-72 h ([6]; day 74, 0.1 mg/kg sc bi-weekly) of 211 ng·h/mL, a Cmax ([6]; day 74, 0.1 mg/kg sc bi-weekly) of 113 ng/mL and a Tmax ([6]; day 74, 0.1 mg/kg sc bi-weekly) of 9.66 min. For the same molecule, the Tmax (in vivo [7]; Cynomolgus, subcutaneous) was ≤ 15 min, the Cmax (in vivo [7]; sc, 0.0166 mg/kg) was 10.7 ng/mL and the Tmax (in vivo [7]; sc, 0.0166 mg/kg) was 8.88 min. It also gave a Cmax (in vivo [7]; sc, 0.0333 mg/kg) of 23.7 ng/mL, a Tmax (in vivo [7]; sc, 0.0333 mg/kg) of 6.96 min and a Cmax (in vivo [7]; sc, 0.05 mg/kg) of 34.2 ng/mL. The Tmax (in vivo [7]; sc, 0.05 mg/kg) was 12 min, the Tmax [8, 11] was 0.138 (0.05) h and the Tmax [8, 12] was 0.165 (0.07) h. For the same molecule, the Tmax [8, 13] was 0.203 (0.07) h, the Tmax [8, 14] was 0.161 (0.07) h and the Tmax [8, 15] was 0.184 (0.07) h. The Tmax [8, 16] was 0.185 (0.07) h.
